Read-outs that look alike come from different tables or passages of the source. Positions of bridges follow the written chain, without caps; N, C: chain ends. Residues, ends and D or L forms follow the SMILES beside them.

What all share (assay): cell-based
One assay concerns the target hNav1.5 (Homo sapiens, UniProt Q14524).
A further assay concerns the target hNav1.7 (Homo sapiens, UniProt Q15858). It counts as cell-based. The settings on record: IonWorks Quattro; clamped to −110 mV, depolarized to −10 mV, 5 min after compound; n=2; read-out: IWQ Use Nav1.7. In general terms: Patch clamp records ionic current or voltage across a cell membrane.
Another assay has as its target hNav1.3 (Homo sapiens, UniProt Q9NY46). The settings on record: IonWorks Quattro, use-dependent; […]; read-out: IWQ Use Nav1.3.
Where [1] appears, read: IonWorks Quattro, use-dependent, […], read-out: IWQ Use Nav1.5.

hNav1.5, sequence (Q14524 whole entry, looked up): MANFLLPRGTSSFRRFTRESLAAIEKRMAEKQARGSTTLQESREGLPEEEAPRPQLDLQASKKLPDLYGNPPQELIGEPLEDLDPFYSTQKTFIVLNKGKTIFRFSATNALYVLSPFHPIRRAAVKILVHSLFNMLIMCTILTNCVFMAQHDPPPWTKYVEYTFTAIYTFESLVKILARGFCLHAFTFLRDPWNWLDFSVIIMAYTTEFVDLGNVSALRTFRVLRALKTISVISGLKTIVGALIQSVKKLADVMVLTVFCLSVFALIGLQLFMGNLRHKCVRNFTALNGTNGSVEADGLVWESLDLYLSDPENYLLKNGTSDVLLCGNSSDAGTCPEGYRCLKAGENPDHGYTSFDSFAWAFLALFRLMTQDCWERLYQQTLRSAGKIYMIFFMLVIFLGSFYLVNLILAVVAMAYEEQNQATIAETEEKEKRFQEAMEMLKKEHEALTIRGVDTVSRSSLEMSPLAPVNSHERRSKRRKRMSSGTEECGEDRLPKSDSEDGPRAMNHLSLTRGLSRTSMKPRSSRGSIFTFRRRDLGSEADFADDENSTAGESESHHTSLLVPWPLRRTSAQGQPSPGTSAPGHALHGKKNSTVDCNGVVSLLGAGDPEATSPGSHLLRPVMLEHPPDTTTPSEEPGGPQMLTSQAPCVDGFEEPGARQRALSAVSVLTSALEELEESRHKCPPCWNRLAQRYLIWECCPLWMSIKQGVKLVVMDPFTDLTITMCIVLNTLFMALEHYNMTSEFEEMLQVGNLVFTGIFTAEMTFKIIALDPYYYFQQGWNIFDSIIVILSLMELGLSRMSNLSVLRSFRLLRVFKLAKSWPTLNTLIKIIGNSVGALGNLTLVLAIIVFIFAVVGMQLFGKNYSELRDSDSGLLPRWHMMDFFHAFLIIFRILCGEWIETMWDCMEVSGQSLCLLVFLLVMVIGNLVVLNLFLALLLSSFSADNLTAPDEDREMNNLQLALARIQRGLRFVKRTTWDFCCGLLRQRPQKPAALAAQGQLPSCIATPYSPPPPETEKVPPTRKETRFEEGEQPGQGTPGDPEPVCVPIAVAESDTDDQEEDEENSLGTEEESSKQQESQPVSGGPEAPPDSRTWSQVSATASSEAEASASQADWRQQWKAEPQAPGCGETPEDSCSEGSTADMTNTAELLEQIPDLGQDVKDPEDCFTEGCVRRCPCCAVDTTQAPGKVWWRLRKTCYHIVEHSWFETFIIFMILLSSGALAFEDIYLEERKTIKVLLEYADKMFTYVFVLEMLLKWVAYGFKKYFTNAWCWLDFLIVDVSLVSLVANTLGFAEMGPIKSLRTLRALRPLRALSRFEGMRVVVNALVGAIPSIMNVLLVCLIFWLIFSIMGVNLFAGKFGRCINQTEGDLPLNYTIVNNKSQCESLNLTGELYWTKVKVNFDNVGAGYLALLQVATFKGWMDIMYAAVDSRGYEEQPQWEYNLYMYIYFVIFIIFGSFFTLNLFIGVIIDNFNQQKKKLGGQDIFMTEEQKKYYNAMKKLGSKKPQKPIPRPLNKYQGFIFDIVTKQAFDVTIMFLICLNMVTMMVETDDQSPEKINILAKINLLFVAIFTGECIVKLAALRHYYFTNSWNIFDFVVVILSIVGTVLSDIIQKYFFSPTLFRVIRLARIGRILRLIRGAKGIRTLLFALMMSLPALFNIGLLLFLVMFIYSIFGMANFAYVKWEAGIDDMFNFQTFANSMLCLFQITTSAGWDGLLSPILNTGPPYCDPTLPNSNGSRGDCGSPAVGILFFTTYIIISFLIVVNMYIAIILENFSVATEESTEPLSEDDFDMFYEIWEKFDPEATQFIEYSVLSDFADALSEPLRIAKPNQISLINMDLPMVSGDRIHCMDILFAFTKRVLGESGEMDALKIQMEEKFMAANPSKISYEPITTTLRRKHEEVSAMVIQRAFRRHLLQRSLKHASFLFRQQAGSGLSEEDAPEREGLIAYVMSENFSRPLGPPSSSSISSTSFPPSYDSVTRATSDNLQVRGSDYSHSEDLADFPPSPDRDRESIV
hNav1.3, sequence (Q9NY46 whole entry, looked up): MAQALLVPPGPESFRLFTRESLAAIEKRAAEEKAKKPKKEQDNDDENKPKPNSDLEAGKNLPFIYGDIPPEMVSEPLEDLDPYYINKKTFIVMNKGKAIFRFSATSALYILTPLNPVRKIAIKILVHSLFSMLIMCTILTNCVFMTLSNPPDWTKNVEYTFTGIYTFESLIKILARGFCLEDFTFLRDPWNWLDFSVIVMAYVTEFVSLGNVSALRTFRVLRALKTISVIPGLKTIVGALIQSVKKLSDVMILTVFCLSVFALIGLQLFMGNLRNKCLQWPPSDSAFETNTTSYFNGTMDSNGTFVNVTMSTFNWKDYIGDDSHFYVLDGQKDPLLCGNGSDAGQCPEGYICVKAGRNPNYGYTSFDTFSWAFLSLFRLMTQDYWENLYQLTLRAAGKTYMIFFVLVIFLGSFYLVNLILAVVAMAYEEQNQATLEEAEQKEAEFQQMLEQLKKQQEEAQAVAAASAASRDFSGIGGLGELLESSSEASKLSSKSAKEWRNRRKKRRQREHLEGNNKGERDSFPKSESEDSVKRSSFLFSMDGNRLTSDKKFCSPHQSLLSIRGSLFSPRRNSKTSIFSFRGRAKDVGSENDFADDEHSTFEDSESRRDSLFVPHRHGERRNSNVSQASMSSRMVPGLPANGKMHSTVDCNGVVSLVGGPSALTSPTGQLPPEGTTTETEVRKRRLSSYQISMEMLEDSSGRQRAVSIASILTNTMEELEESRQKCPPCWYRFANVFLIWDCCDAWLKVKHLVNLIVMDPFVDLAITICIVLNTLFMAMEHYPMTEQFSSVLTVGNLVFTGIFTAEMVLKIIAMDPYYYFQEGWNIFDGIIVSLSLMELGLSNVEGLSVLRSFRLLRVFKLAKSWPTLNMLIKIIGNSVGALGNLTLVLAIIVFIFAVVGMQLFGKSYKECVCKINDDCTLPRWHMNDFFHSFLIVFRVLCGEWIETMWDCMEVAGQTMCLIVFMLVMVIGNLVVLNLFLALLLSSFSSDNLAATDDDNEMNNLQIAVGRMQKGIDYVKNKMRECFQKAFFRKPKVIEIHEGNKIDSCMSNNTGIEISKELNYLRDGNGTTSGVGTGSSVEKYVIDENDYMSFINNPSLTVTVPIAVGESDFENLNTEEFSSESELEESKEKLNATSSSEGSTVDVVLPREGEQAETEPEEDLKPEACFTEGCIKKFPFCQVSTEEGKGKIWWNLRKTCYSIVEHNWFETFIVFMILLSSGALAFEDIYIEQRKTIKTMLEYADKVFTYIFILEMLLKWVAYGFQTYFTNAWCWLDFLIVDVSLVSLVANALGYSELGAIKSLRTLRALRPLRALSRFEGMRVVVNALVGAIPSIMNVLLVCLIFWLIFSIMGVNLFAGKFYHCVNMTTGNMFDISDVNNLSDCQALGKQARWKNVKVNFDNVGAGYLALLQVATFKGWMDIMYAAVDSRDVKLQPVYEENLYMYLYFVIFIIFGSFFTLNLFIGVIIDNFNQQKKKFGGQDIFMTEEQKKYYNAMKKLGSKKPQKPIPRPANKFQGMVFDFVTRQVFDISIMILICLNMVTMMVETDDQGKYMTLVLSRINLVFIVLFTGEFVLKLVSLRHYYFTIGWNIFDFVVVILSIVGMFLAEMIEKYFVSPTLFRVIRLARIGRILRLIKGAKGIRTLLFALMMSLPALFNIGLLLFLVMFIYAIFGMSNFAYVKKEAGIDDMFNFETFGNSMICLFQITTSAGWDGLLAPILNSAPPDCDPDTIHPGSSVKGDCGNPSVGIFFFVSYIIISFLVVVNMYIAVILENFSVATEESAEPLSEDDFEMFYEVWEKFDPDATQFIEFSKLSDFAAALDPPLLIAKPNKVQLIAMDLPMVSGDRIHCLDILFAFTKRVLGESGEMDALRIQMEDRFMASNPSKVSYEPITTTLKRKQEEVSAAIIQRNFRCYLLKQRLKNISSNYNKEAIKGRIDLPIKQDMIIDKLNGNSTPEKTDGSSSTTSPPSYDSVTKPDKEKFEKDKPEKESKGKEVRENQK

As to `CC[C@H](C)[C@@H]1NC(=O)[C@@H]2CSSC[C@@H]3NC(=O)[C@H](C(C)C)NC(=O)[C@H](CC(C)C)NC(=O)[C@H](CC(N)=O)NC(=O)[C@@H]4CCCN4C(=O)[C@H](CCCNC(=N)N)NC(=O)[C@H](CSSC[C@H](NC(=O)[C@@H](N)CC(=O)O)C(=O)N[C@@H](CC(C)C)C(=O)NCC(=O)N[C@@H](CCC(=O)O)C(=O)N[C@@H](CCSC)C(=O)N[C@@H](CCCNC(=N)N)C(=O)N[C@@H](CCCCN)C(=O)N2)NC(=O)[C@H](CSSC[C@@H](C(=O)N[C@@H](CCCCN)C(=O)N[C@@H](Cc2ccc(O)cc2)C(=O)N[C@H](C(=O)N[C@@H](Cc2ccccc2)C(N)=O)C(C)C)NC(=O)[C@H](Cc2c[nH]c4ccccc24)NC(=O)[C@H](CCCCN)NC(=O)[C@H](Cc2cnc[nH]2)NC(=O)[C@H]([C@@H](C)O)NC(=O)[C@H](CCCNC(=N)N)NC(=O)[C@H](CO)NC3=O)NC(=O)[C@H](CCCCN)NC(=O)[C@H](CC(=O)O)NC(=O)[C@H](CC(N)=O)NC(=O)[C@H](CC(=O)O)NC(=O)[C@@H]2CCCN2C1=O` [SEQ ID NO: 143] (H-DCLGEMRKCIPDNDKCCRPNLVCSRTHKWCKYVF-NH2; disulfide 2-17, 9-23, 16-30), the IC50 was determined as 10 µM against hNav1.5 (IWQ Use Nav1.5) and 17.7 µM on hNav1.7.

As to `CC[C@H](C)[C@@H]1NC(=O)[C@@H]2CSSC[C@@H]3NC(=O)[C@H](C(C)C)NC(=O)[C@H](CC(C)C)NC(=O)[C@H](CC(N)=O)NC(=O)[C@@H]4CCCN4C(=O)[C@H](CCCNC(=N)N)NC(=O)[C@H](CSSC[C@H](NC(=O)[C@@H](N)CC(=O)O)C(=O)N[C@@H](CC(C)C)C(=O)NCC(=O)N[C@@H](Cc4ccccc4)C(=O)N[C@@H](CCSC)C(=O)N[C@@H](CCCNC(=N)N)C(=O)N[C@@H](CCCCN)C(=O)N2)NC(=O)[C@H](CSSC[C@@H](C(=O)N[C@@H](CCCCN)C(=O)N[C@@H](Cc2ccc(O)cc2)C(=O)N[C@H](C(N)=O)C(C)C)NC(=O)[C@H](Cc2c[nH]c4ccccc24)NC(=O)[C@H](CCCCN)NC(=O)[C@H](Cc2cnc[nH]2)NC(=O)[C@H]([C@@H](C)O)NC(=O)[C@H](CCCNC(=N)N)NC(=O)[C@H](CO)NC3=O)NC(=O)[C@H](CCCCN)NC(=O)[C@H](CC(=O)O)NC(=O)[C@H](CC(N)=O)NC(=O)[C@H](CC(=O)O)NC(=O)[C@@H]2CCCN2C1=O` [compound 415] (H-DCLGFMRKCIPDNDKCCRPNLVCSRTHKWCKYV-NH2; disulfide 2-17, 9-23, 16-30), the IC50 at hNav1.5 (setting [1]) is 10.8 µM; at hNav1.3 it was 1.3 µM.

For the compound `CC[C@H](C)[C@@H]1NC(=O)[C@@H]2CSSC[C@@H]3NC(=O)[C@H](C(C)C)NC(=O)[C@H](CC(C)C)NC(=O)[C@H](CC(N)=O)NC(=O)[C@@H]4CCCN4C(=O)[C@H](CCCNC(=N)N)NC(=O)[C@H](CSSC[C@H](NC(=O)[C@@H](N)CC(=O)O)C(=O)N[C@@H](CC(C)C)C(=O)NCC(=O)N[C@@H](Cc4ccccc4)C(=O)N[C@@H](CCSC)C(=O)N[C@@H](CCCNC(=N)N)C(=O)N[C@@H](CCCCN)C(=O)N2)NC(=O)[C@H](CSSC[C@@H](C(=O)N[C@@H](CCCCN)C(=O)N[C@@H](Cc2ccc(O)cc2)C(N)=O)NC(=O)[C@H](Cc2c[nH]c4ccccc24)NC(=O)[C@H](CCCCN)NC(=O)[C@H](Cc2cnc[nH]2)NC(=O)[C@H]([C@@H](C)O)NC(=O)[C@H](CCCNC(=N)N)NC(=O)[C@H](CO)NC3=O)NC(=O)[C@H](CCCCN)NC(=O)[C@H](CC(=O)O)NC(=O)[C@H](CC(N)=O)NC(=O)[C@H](CC(=O)O)NC(=O)[C@@H]2CCCN2C1=O` [compound 416] (H-DCLGFMRKCIPDNDKCCRPNLVCSRTHKWCKY-NH2; disulfide 2-17, 9-23, 16-30), the IC50 on hNav1.5 (setting [1]) amounted to 8.64 µM; on hNav1.3 it was 0.88 µM.

These data come from US9340590B2 (priority 2011, dated 2016).
